According to patent US20180319810A1, “SUBSTITUTED BRIDGED UREA ANALOGS AS SIRTUIN MODULATORS” (GlaxoSmithKline Intellectual Property (No.2) Limited, priority 2014, published 2018):

Target: T1, SIRT1 (Homo sapiens, UniProt Q96EB6)
T1 sequence (Q96EB6 1-747): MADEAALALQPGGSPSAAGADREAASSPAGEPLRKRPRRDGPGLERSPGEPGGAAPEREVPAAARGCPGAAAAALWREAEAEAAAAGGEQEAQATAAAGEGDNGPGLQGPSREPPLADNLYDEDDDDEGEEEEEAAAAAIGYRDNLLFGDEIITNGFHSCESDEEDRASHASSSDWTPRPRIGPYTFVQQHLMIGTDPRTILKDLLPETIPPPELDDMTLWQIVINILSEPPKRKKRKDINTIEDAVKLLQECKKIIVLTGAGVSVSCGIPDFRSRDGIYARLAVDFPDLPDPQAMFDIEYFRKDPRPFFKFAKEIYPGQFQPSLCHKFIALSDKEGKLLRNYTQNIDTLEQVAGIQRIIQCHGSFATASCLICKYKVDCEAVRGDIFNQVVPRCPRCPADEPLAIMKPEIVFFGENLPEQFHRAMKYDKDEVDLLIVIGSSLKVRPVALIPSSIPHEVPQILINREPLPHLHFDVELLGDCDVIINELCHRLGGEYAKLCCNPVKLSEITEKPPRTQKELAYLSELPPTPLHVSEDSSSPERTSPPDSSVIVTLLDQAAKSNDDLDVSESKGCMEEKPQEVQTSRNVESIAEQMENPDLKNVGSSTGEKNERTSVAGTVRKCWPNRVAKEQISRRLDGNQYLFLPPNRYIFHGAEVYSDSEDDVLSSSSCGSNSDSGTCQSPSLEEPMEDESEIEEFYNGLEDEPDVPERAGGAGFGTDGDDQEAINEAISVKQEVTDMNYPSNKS
Assay: Trp mass spectrometry assay of SIRT1 activation
Format: biochemical
Conditions: Trp peptide Ac-R-H-K-K(Ac)-W-NH2 0.5 μM, 120 μM βNAD+, 10 nM SIRT1, 25 min, 25° C.

For `C[C@@H](NC(=O)c1ncc2c(n1)N(C(=O)Nc1ccccn1)[C@H]1CCCN2C1)C(F)(F)F` [Example 63, (9S)—N10-(pyridin-2-yl)-N2-((R)-1,1,1-trifluoropropan-2-yl)-8,9-dihydro-6H-5,9-methanopyrimido[4,5-b][1,4]diazocine-2,10(7H)-dicarboxamide], the “TRP Activity (EC1.5, concentration of compound required to increase SIRT1 activity by 50% over control)” value was “A (EC1.5<1 μM)” and the “TRP MAX RESP (percent maximum fold activation relative to control)” value was “A (Fold activation ≥150%)”.
